Assay results reported in paper PMC12080252, “Daphnia magna as an Alternative Model for (Simultaneous) Bioaccumulation and Chronic Toxicity Assessment—Controlled Exposure Study Indicates High Hazard of Heterocyclic PAHs” (Environmental Science & Technology, 2025).
“And” between values parts separate entries of the source, which are not always exact repeats. Equal values may be shown once.

Experiments:
Daphnia magna = assay: Chronic reproduction toxicity test (OECD 211) with passive dosing; type: in vivo; parameters: % inhibition, avr. of vessels: concentration or dose not given beside the values; conditions: for EC10: 21-day reproduction inhibition; for #offspring per mother, Total: single vessels (replicates); for #dead offspring per mother, Total: single vessels; for wet weight of parent daphnids, change relative to control: end of 21-d exposure
Experimental: (§1) Chronic toxicity tests with D. magna were performed according to the OECD guideline 211^2 using the passive dosing method. Two days before the tests, the exposure solution was predosed by shaking 10 PDMS disks loaded with the test substance in 1 L of medium for 48 h. Each test vessel (250 mL) was first flushed with the dosed solution to equilibrate the vessel walls, then filled with 100 mL of test solution, one PDMS disk, and one juvenile D. magna (<24 h old). The tests were conducted in loosely closed bottles to allow for adequate gas exchange and limit evaporation. The exposure medium was changed three times per week, and the animals were fed D. subspicatus daily (0.2 mg C/Daphnia/day). The number of offspring per adult and behavioral or physiological effects (e.g., size, movement, unhatched eggs) were recorded daily (except weekends). Dissolved oxygen, pH and temperature were also measured each week.
(§2) Tests were performed under static conditions (20 °C, 16:8 h light/dark cycle, 1 klux). Each compound was tested in 10 replicates for controls and limit tests (a single high concentration exposure to screen for significant toxic effects) and with 6 or 10 replicates for concentration–response tests. Reuse of silicone disks was included in some experiments (Table S3). Reproductive inhibition was assessed by counting offspring over 21 days. The number of offspring per mother in treatment groups was compared to controls, and the percent inhibition per replicate was used to generate concentration–response curves. A minimum of five concentrations per compound were tested to determine EC10, EC20, and EC50 values. For each test, three sets of polymers were rotated between loading, dosing, and exposure stages (Figure S2). Initial (before animal and food addition) and final (after 2–3 days of exposure, just before the medium change) water concentrations (CW) were monitored, with the latter collected after centrifugation to remove biomass (e.g., algae, carapaces, or feces).
(§3) All data are presented as average ± standard deviation. Student’s t test was used to analyze significance (p-value >0.05 considered insignificant). Concentration–response curve parameters (effective concentrations and confidence limits) and plots were generated using GraphPad Prism software (V6.01, GraphPad Software, La Jolla, CA, USA). The exposure concentrations were log10 transformed before fitting. Then a four parameters logistic model with variable slope was used to obtain EC10, EC20 and EC50 (see section S5 in SI file for details). Effective chemical activities (EA50) for chronic toxicity were calculated as follows: [drawing 1] 1 […]
(§4) S5. Concentration-response curve (CRC) fitting procedure
(§5) GraphPad Prism version 9.5.1 was used to fit CRC and obtain EC10, EC20, EC50 values and their confidence intervals. The exposure concentrations were log10 transformed before fitting. Then a four parameters logistic model with variable slope was used that describes the response as a function of following four parameters: minimum response (the Bottom), maximum response (the Top), the concentration required to cause a response half-way between the minimum and maximum (the EC50) and the slope of the curve […]
(§6) concentration. The Top was constrained to 100, the Bottom was constrained to 0, the HillSlope was not […]
(§7) !"# %& = !"# %&* − , × !"# 3 * 4
(§8) (, + ,((!"# %&'(<=)×-.!!/!"01)
(§9) Figure S7 Concentration-response curves of four NSO-PAHs based on reproductive inhibition during 21-day chronic toxicity tests with D. magna.
(§10) (1 picture or pasted object on this page, not shown here)

[1] = as above; type: in vivo, Daphnia magna; parameters: % inhibition, avr. of vessels: concentration or dose not given beside the values; conditions: Daphnia magna, in vivo, other: waterborne exposure by passive dosing from PDMS disks, 21-day test
Experimental: as §1, §2, §3, §4, §5, §6, §7, §8, §9, §10

[2] = cited from earlier work
D. magna = assay: PNEC and risk quotient estimation; parameters: species or system Daphnia magna; conditions: environmental concentration of surrogate (CRB, DBF, DBT) / PNEC
Source text: To ensure a precautionary approach, an AF of 100 was applied, which accounts for interspecies variability and uncertainties in extrapolating laboratory findings to real-world conditions.
Environmental concentration (EC) data are obtained from A CRB, B DBF, and C DBT by choosing the highest
concentration that remains below the solubility limit of the respective NSO-PAH, as described in Reference 24.

[3] = 21-day reproduction test, sheet Test 4-BNF, last treatment block, single replicate vessels 1-6
[4] = BNF avr. medium concentration 0.77 µg/L, 21 days
[5] = BNF avr. medium concentration 2.99 µg/L, 21 days

c1ccc2c(c1)ccc1oc3ccccc3c12 [BNF, benzo[b]naphtho[1,2-d]furan]
EC10 (Daphnia magna; 97.5-2.5% confidence interval in brackets): 0.91 (0.35-1.67) μg L^-1
EC10 (Daphnia magna; confidence interval in brackets): 4.17 (1.60-7.63) nmol L^-1
% inhibition, avr. of vessels (Daphnia magna; 21-day reproduction test, sheet Test 4-BNF, last treatment block, average of 6 vessels): 35.3%
% inhibition (of reproduction, per vessel) (Daphnia magna; [3]): 17.3% and 34.4% and 37.2% and 35.8% and 67.2% and 20.1%
Total #dead offspring per mother (per vessel) (Daphnia magna; [3]): 1 and 0
growth of parent D. magna (wet weight) (Daphnia magna; 21-day test, p-value <0.05): significantly inhibited D. magna growth
%offspring mortality (Daphnia magna; 21 days): 0.73%
#average live offspring (Daphnia magna; 21 days, mean of 6 vessels, sheet Test 4-BNF, last treatment block): 45
LOEC (lowest observed effect concentration, reproduction inhibition) (Daphnia magna; 21 days, p-value <0.05 vs controls): 3.0 μg L^–1
#total live offspring (Daphnia magna; 21 days, sum of 6 vessels, sheet Test 4-BNF, last treatment block): 272
#offspring per mother, Total (Daphnia magna; BNF avr. medium concentration 0.35 µg/L (methanol for dosing 0.063 g/L), 21 days): 77 and 63 and 72 and 59 and 68
%offspring mortality (Daphnia magna; BNF avr. medium concentration 0.35 µg/L, 21 days): 0.25%
% inhibition, avr. (Daphnia magna; BNF avr. medium concentration 0.35 µg/L, 21 days, average of vessels): 4.4%
#average live offspring (Daphnia magna; BNF avr. medium concentration 0.35 µg/L, 21 days, per mother): 67
#total live offspring (Daphnia magna; BNF avr. medium concentration 0.35 µg/L, 21 days, sum of all vessels): 402
#offspring per mother, Total (Daphnia magna; BNF avr. medium concentration 0.77 µg/L (methanol for dosing 0.125 g/L), 21 days): 72 and 65 and 81 and 60 and 59
%offspring mortality (Daphnia magna; [4]): 0.00%
% inhibition, avr. (Daphnia magna; BNF avr. medium concentration 0.77 µg/L, 21 days, average of vessels): 2.8%
#average live offspring (Daphnia magna; BNF avr. medium concentration 0.77 µg/L, 21 days, per mother): 68
#dead offspring per mother, Total (Daphnia magna; [4]): 0
#total live offspring (Daphnia magna; BNF avr. medium concentration 0.77 µg/L, 21 days, sum of all vessels): 409
#offspring per mother, Total (Daphnia magna; BNF avr. medium concentration 1.55 µg/L (methanol for dosing 0.25 g/L), 21 days): 68 and 44 and 67 and 57 and 40
%offspring mortality (Daphnia magna; BNF avr. medium concentration 1.55 µg/L, 21 days): 0.36%
% inhibition, avr. (Daphnia magna; BNF avr. medium concentration 1.55 µg/L, 21 days, average of surviving vessels): 21.3%
#average live offspring (Daphnia magna; BNF avr. medium concentration 1.55 µg/L, 21 days, per mother): 55
#total live offspring (Daphnia magna; BNF avr. medium concentration 1.55 µg/L, 21 days, sum of surviving vessels): 276
state of the mother animal (parental mortality) (Daphnia magna; BNF avr. medium concentration 1.55 µg/L, vessel 5, day 16): dead
#offspring per mother, Total (Daphnia magna; BNF avr. medium concentration 2.99 µg/L (methanol for dosing 0.5 g/L), 21 days): 46 and 49 and 38 and 47 and 60 and 51
%offspring mortality (Daphnia magna; [5]): 0.00%
% inhibition, avr. (Daphnia magna; BNF avr. medium concentration 2.99 µg/L, 21 days, average of vessels): 30.8%
#average live offspring (Daphnia magna; BNF avr. medium concentration 2.99 µg/L, 21 days, per mother): 49
#dead offspring per mother, Total (Daphnia magna; [5]): 0
#total live offspring (Daphnia magna; BNF avr. medium concentration 2.99 µg/L, 21 days, sum of all vessels): 291
EA50 (effective chemical activity) (Daphnia magna; EC50/subcooled liquid solubility, eq 1): 0.002 unitless
Classification according to REACH Annex XIII (Daphnia magna; chronic EC10 < 10 μg L^–1): toxic to aquatic life
CTLBB (critical target lipid body burden) (Daphnia magna; derived from chronic EC10 using eq 3): 1.7 μmol g^-1 octanol
wet weight of parent daphnids, change relative to control (Daphnia magna; 0.3 µg/L (Fig. S9)): -11%
wet weight of parent daphnids, change relative to control (Daphnia magna; 0.8 µg/L (Fig. S9)): -23%
wet weight of parent daphnids, change relative to control (Daphnia magna; 1.5 µg/L (Fig. S9)): -12%
wet weight of parent daphnids, change relative to control (Daphnia magna; 3.0 µg/L (Fig. S9)): -33%
wet weight of parent daphnids, change relative to control (Daphnia magna; 4.4 µg/L (Fig. S9)): -38%
Parent animal mortality (Daphnia magna; vessel 5, day 16, sheet Test 4-BNF, last treatment block): dead (reported as exposure related)
mortality at 21 days, 0.3 µg/L ([1]; 0.3 µg/L (Fig. S8), read-out: % offspring mortality of total offspring): 0.3%
mortality at 21 days, 0.8 µg/L ([1]; 0.8 µg/L (Fig. S8), read-out: % offspring mortality of total offspring): 0%
mortality at 21 days, 1.5 µg/L ([1]; 1.5 µg/L (Fig. S8), read-out: % offspring mortality of total offspring): 0.4%
mortality at 21 days, 3 µg/L ([1]; 3.0 µg/L (Fig. S8), read-out: % offspring mortality of total offspring): 0%
mortality at 21 days, 4.4 µg/L ([1]; 4.4 µg/L (Fig. S8), read-out: % offspring mortality of total offspring): 0.7%
mortality at 21 days ([1]; at higher exposure levels, read-out: offspring mortality): < 1%
SW (water solubility) ([2]; measured in previous work): 0.25 µg/mL
log KOW ([2]; n-octanol-water partition coefficient): 5.6
log KOC ([2]; organic carbon-water partition coefficient): 4.98
RQ (EC/PNEC) (D. magna): 21111
